One test deals with MAP2K3 (human) (UniProt P46734). The test is described as follows: KINOMEscan competition binding. To be noted: compound 10.0 µM.
Test [1] addresses PIM2 (human) (UniProt Q9P1W9). The test is described as follows: KINOMEscan competition binding. To be noted: compound 10.0 µM.
The target in another test is PIM3 (human) (UniProt Q86V86). The test is described as follows: KINOMEscan competition binding. Particulars: compound 10.0 µM.
The target in another test is HIPK1 (human) (UniProt Q86Z02). The test is described as follows: KINOMEscan competition binding. Particulars: compound 10.0 µM.
Test [2] concerns the target PIM1 (human) (UniProt P11309). As to the kind of experiment: KINOMEscan competition binding. Particulars: compound 10.0 µM.
A further test has as its target CDK16 (human) (UniProt Q00536). As to the kind of experiment: KINOMEscan competition binding. To be noted: compound 10.0 µM.
The next test deals with MYO3B (human) (UniProt Q8WXR4). As to the kind of experiment: KINOMEscan competition binding. To be noted: compound 10.0 µM.
The next test addresses CSNK2A2 (human) (UniProt P19784). The test is described as follows: KINOMEscan competition binding. Particulars: compound 10.0 µM.
For a further test, the target named is RPS6KA2 KD2 (human) (UniProt Q15349). As to the kind of experiment: KINOMEscan competition binding. Particulars: compound 10.0 µM.
The target of the next test is RIPK4 (human) (UniProt P57078). As to the kind of experiment: KINOMEscan competition binding. Particulars: compound 10.0 µM.
The target of test [3] is TYK2 JH2 pseudokinase (human) (UniProt P29597). The test is described as follows: KINOMEscan competition binding. Particulars: compound 10.0 µM.
Another test has as its target MAP3K7 (human) (UniProt O43318). As to the kind of experiment: KINOMEscan competition binding. Particulars: compound 10.0 µM.
In the next test the target is MAPKAPK5 (human) (UniProt Q8IW41). As to the kind of experiment: KINOMEscan competition binding. To be noted: compound 10.0 µM.
The next test deals with STK17A (human) (UniProt Q9UEE5). As to the kind of experiment: KINOMEscan competition binding. To be noted: compound 10.0 µM.
For the next test, the target named is DYRK1B (human) (UniProt Q9Y463). As to the kind of experiment: KINOMEscan competition binding. Particulars: compound 10.0 µM.
The target in another test is DAPK1 (human) (UniProt P53355). As to the kind of experiment: KINOMEscan competition binding. To be noted: compound 10.0 µM.
For another test, the target named is TLK1 (human) (UniProt Q9UKI8). The test is described as follows: KINOMEscan competition binding. Particulars: compound 10.0 µM.
A further test deals with STK24 (human) (UniProt Q9Y6E0). The test is described as follows: KINOMEscan competition binding. Particulars: compound 10.0 µM.
The target of another test is MAP4K2 (human) (UniProt Q12851). As to the kind of experiment: KINOMEscan competition binding. Particulars: compound 10.0 µM.
The next test addresses PLK4 (human) (UniProt O00444). As to the kind of experiment: KINOMEscan competition binding. To be noted: compound 10.0 µM.
The target in the next test is GSK3A (human) (UniProt P49840). The test is described as follows: KINOMEscan competition binding. Particulars: compound 10.0 µM.
Another test addresses STK17B (human) (UniProt O94768). As to the kind of experiment: KINOMEscan competition binding. To be noted: compound 10.0 µM.
A further test concerns the target ANKK1 (human) (UniProt Q8NFD2). As to the kind of experiment: KINOMEscan competition binding. To be noted: compound 10.0 µM.
In a further test the target is TGFBR2 (human) (UniProt P37173). The test is described as follows: KINOMEscan competition binding. To be noted: compound 10.0 µM.
The target in another test is CSNK1E (human) (UniProt P49674). As to the kind of experiment: KINOMEscan competition binding. Particulars: compound 10.0 µM.
The next test has as its target RPS6KA1 KD2 (human) (UniProt Q15418). The test is described as follows: KINOMEscan competition binding. Particulars: compound 10.0 µM.
The target in the next test is ACVR2B (human) (UniProt Q13705). The test is described as follows: KINOMEscan competition binding. Particulars: compound 10.0 µM.
The target in a further test is RPS6KA6 KD2 (human) (UniProt Q9UK32). The test is described as follows: KINOMEscan competition binding. To be noted: compound 10.0 µM.
The target in test [4] is JAK1 JH2 pseudokinase (human) (UniProt P23458). The test is described as follows: KINOMEscan competition binding. Particulars: compound 10.0 µM.
The target of another test is GSK3B (human) (UniProt P49841). The test is described as follows: KINOMEscan competition binding. Particulars: compound 10.0 µM.
Another test addresses DAPK2 (human) (UniProt Q9UIK4). As to the kind of experiment: KINOMEscan competition binding. To be noted: compound 10.0 µM.
The target in test [5] is PIM2 (human) (UniProt Q9P1W9). The test is described as follows: SelectScreen, TR FRET. On the technique in general: Time-resolved FRET reads energy transfer from a long-lived donor to a nearby acceptor.
The target in test [6] is PIM1 (human) (UniProt P11309). As to the kind of experiment: SelectScreen, TR FRET.
A further test addresses PLK3 (human) (UniProt Q9H4B4). As to the kind of experiment: KINOMEscan competition binding. Particulars: compound 10.0 µM.
The target of another test is CLK2 (human) (UniProt P49760). The test is described as follows: KINOMEscan competition binding. Particulars: compound 10.0 µM.
Another test concerns the target GAK (human) (UniProt O14976). The test is described as follows: KINOMEscan competition binding. To be noted: compound 10.0 µM.
In the next test the target is SLK (human) (UniProt Q9H2G2). The test is described as follows: KINOMEscan competition binding. Particulars: compound 10.0 µM.
For test [7], the target named is TTK (human) (UniProt P33981). The test is described as follows: KINOMEscan competition binding.
A further test concerns the target CAMKK1 (human) (UniProt Q8N5S9). As to the kind of experiment: KINOMEscan competition binding. To be noted: compound 10.0 µM.
A further test concerns the target DCLK1 (human) (UniProt O15075). As to the kind of experiment: KINOMEscan competition binding. Particulars: compound 10.0 µM.
The next test concerns the target MYLK (human) (UniProt Q15746). The test is described as follows: KINOMEscan competition binding. To be noted: compound 10.0 µM.
The target in the next test is STK33 (human) (UniProt Q9BYT3). The test is described as follows: KINOMEscan competition binding. To be noted: compound 10.0 µM.
The next test has as its target DAPK3 (human) (UniProt O43293). As to the kind of experiment: KINOMEscan competition binding. To be noted: compound 10.0 µM.
A further test deals with PTK2 (human) (UniProt Q05397). As to the kind of experiment: KINOMEscan competition binding. To be noted: compound 10.0 µM.
In another test the target is DCLK2 (human) (UniProt Q8N568). As to the kind of experiment: KINOMEscan competition binding. To be noted: compound 10.0 µM.
A further test concerns the target MET (human) (UniProt P08581). The test is described as follows: KINOMEscan competition binding. To be noted: compound 10.0 µM.
The target in another test is PLK1 (human) (UniProt P53350). As to the kind of experiment: KINOMEscan competition binding. Particulars: compound 10.0 µM.
The target in a further test is PRKD1 (human) (UniProt Q15139). The test is described as follows: KINOMEscan competition binding. Particulars: compound 10.0 µM.
A further test concerns the target TNK1 (human) (UniProt Q13470). As to the kind of experiment: KINOMEscan competition binding. To be noted: compound 10.0 µM.
A further test addresses MAPK7 (human) (UniProt Q13164). The test is described as follows: KINOMEscan competition binding. Particulars: compound 10.0 µM.
The next test has as its target CAMKK2 (human) (UniProt Q96RR4). The test is described as follows: KINOMEscan competition binding. Particulars: compound 10.0 µM.
In another test the target is ALK (human) (UniProt Q9UM73). As to the kind of experiment: KINOMEscan competition binding. Particulars: compound 10.0 µM.
The next test concerns the target MINK1 (human) (UniProt Q8N4C8). As to the kind of experiment: KINOMEscan competition binding. To be noted: compound 10.0 µM.
The target in a further test is CAMK2A (human) (UniProt Q9UQM7). As to the kind of experiment: KINOMEscan competition binding. To be noted: compound 10.0 µM.
The target of test [8] is TTK (human) (UniProt P33981). As to the kind of experiment: SelectScreen, TR FRET.

Usually IC50 stands for the concentration that gives 50% inhibition. Read a low IC50 as greater potency. As usually defined, the Kd is the concentration at which binding is half-saturated.

PIM2 (human), sequence (Q9P1W9 whole entry, looked up): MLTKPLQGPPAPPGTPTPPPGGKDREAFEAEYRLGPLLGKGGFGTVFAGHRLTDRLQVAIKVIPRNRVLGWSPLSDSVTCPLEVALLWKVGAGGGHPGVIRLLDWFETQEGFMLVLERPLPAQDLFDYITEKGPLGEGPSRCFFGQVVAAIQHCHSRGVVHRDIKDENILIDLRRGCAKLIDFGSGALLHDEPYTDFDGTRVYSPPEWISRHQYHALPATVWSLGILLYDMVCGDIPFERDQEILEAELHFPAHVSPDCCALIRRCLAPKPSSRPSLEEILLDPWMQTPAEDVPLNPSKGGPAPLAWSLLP
PIM1 (human), sequence (P11309 whole entry, looked up): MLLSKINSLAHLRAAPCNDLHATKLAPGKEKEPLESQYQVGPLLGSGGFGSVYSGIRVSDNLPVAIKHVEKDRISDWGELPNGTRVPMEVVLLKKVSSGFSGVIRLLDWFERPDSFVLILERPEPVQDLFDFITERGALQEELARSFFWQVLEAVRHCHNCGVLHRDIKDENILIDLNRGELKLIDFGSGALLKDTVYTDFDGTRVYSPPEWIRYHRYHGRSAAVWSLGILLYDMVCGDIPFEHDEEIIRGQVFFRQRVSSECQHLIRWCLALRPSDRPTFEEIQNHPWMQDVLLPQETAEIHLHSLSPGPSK
TTK (human), sequence (P33981 whole entry, looked up): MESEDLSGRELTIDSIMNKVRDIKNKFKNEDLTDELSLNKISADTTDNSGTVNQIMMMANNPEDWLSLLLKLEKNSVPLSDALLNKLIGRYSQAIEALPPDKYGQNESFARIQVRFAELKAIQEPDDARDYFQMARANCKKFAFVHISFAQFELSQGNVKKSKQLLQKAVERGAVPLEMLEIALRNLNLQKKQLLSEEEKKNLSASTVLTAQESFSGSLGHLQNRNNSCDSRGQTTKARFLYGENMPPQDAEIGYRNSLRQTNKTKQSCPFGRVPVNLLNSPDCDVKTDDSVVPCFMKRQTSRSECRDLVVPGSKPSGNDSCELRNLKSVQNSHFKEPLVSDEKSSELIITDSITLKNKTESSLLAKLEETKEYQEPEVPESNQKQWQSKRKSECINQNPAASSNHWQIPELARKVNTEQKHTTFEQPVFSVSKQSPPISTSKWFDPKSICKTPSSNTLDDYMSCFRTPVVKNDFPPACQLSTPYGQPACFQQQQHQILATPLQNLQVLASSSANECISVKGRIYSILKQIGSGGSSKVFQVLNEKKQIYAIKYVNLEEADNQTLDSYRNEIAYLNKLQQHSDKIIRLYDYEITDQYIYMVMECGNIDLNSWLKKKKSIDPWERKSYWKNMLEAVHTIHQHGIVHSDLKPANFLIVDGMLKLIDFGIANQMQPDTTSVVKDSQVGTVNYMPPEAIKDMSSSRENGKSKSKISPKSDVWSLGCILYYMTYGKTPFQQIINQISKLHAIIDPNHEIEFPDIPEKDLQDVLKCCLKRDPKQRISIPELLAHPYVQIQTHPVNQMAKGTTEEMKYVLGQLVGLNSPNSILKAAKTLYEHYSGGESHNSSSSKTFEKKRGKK
RPS6KA2 KD2 (human), sequence (Q15349 whole entry, looked up): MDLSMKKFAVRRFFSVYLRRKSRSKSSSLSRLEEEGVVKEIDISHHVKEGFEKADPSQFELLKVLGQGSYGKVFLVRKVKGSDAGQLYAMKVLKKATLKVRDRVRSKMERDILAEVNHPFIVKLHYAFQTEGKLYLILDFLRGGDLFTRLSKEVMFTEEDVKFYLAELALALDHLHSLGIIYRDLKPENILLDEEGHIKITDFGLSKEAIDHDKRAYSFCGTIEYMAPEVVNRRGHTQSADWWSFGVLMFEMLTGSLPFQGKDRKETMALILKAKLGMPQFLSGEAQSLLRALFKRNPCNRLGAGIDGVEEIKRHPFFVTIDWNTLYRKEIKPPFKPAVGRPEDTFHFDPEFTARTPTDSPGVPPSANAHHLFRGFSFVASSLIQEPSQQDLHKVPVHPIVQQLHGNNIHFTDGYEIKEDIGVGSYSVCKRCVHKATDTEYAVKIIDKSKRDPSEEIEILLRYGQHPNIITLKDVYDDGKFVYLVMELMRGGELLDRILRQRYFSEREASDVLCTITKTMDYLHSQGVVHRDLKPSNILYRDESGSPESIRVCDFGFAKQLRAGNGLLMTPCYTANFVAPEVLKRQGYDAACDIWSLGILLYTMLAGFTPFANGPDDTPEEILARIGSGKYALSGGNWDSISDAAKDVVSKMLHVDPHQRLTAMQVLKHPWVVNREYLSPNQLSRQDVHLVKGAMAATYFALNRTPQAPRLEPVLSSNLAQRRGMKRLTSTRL
HIPK1 (human), sequence (Q86Z02 whole entry, looked up): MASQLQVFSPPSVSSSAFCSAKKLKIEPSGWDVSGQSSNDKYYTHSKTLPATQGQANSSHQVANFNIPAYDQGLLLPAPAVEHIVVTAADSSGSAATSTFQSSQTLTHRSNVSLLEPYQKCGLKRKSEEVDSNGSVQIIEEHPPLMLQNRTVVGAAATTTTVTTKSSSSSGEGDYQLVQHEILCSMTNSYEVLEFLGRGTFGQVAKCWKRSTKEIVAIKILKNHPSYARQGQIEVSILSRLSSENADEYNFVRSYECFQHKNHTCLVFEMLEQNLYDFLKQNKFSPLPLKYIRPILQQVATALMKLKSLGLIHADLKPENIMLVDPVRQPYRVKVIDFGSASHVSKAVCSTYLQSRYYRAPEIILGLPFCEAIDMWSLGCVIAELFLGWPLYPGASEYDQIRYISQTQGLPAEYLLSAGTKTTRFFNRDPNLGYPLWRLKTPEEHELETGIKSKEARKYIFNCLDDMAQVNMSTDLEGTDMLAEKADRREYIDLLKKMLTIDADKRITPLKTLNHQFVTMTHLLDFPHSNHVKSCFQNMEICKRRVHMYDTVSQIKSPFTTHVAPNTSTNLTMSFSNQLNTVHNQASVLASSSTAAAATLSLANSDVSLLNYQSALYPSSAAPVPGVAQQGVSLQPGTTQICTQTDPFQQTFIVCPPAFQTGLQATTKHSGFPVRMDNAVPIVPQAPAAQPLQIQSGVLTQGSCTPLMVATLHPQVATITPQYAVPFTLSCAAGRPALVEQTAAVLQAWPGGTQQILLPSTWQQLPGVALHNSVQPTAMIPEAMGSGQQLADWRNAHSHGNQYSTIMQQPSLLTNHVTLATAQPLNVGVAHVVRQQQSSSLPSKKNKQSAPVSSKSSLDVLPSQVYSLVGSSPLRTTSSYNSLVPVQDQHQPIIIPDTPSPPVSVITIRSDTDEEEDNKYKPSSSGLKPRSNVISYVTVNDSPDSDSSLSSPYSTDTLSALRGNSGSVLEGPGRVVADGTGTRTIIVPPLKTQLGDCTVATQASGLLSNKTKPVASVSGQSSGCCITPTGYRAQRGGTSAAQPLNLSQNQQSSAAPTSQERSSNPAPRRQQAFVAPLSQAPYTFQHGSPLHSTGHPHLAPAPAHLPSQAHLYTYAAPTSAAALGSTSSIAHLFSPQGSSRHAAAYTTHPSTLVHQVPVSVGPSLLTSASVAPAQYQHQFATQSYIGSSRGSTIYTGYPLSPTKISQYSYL
RPS6KA6 KD2 (human), sequence (Q9UK32 whole entry, looked up): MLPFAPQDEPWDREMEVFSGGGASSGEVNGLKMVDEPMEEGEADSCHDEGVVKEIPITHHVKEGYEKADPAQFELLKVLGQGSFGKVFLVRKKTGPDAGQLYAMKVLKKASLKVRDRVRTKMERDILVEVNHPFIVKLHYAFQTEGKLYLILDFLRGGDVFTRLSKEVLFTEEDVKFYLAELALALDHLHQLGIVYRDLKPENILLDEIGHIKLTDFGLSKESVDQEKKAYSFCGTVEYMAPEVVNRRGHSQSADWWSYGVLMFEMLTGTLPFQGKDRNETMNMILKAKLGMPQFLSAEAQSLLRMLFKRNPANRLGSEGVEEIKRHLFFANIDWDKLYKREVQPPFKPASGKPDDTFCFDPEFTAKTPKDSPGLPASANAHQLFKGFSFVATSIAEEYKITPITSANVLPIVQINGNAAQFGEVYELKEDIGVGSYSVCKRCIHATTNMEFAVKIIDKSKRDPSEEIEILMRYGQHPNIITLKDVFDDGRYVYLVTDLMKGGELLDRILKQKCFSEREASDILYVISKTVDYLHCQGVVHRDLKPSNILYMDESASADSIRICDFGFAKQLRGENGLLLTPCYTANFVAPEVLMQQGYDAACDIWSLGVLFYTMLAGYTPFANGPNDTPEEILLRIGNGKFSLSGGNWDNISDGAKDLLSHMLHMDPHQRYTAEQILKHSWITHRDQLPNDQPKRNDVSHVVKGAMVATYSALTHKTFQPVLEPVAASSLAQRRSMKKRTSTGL
MAP2K3 (human), sequence (P46734 whole entry, looked up): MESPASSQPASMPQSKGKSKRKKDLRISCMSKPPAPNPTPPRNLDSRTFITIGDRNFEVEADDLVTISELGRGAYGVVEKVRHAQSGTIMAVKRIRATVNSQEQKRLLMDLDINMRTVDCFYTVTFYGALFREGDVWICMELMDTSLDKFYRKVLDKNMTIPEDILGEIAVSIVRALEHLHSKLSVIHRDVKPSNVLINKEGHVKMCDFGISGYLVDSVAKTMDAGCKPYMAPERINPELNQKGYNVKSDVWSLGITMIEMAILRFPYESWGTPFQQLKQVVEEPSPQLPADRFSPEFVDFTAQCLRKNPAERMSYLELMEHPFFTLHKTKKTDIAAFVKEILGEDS

Turning to `N=C1NC(=O)/C(=C/c2cccc(-c3ccc(S(N)(=O)=O)cc3)c2)S1`, the kinase still bound, per cent of control at MAP2K3 (human) stood at 24%; on PIM2 (human) [1], 6.2%; at PIM3 (human), 13%; on HIPK1 (human) it was 25%; on PIM1 (human) [2], 16%; on CDK16 (human), 32%. Besides, the kinase still bound, per cent of control at MYO3B (human) amounted to 2.9%.
In the case of `N=C1NC(=O)/C(=C/c2ccc(-c3ccc4c(C(=O)Nc5ccc(N6CCNCC6)cc5)cccc4c3)o2)S1`, the kinase still bound, per cent of control on CSNK2A2 (human) was found to be 33%; on RPS6KA2 KD2 (human), 26%; on RIPK4 (human), 1.3%; in test [3] it was 8.8%; at MAP2K3 (human), 4.6%; at MAP3K7 (human) it was 2.6%. Also, the kinase still bound, per cent of control on MAPKAPK5 (human) turned out to be 12%; at PIM2 (human) [1], 0.65%; at PIM3 (human), 8.2%; at HIPK1 (human), 0.25%; on STK17A (human), 0.1%; on DYRK1B (human), 10%. In addition, the kinase still bound, per cent of control at DAPK1 (human) stood at 12%; at TLK1 (human) it was 12%; on STK24 (human), 23%; on MAP4K2 (human), 26%; at PLK4 (human) it was 3.8%; at GSK3A (human) it was 18%. Also, the kinase still bound, per cent of control at STK17B (human) is 0.4%; at ANKK1 (human) it was 25%; on TGFBR2 (human), 5.7%; at CSNK1E (human) it was 15%; at PIM1 (human) [2] it was 6.4%; on CDK16 (human) it was 24%. Further, the kinase still bound, per cent of control on RPS6KA1 KD2 (human) worked out at 17%; at ACVR2B (human), 33%; at RPS6KA6 KD2 (human) it was 22%; in test [4] it was 32%; on GSK3B (human), 34%; on DAPK2 (human), 24%. The IC50 against PIM2 (human) [5] was 115 nM; at PIM1 (human) [6], 131 nM.
As for `COc1cc(C(=O)NC2CCN(C)CC2)ccc1Nc1ncc2c(n1)N(C1CCCC1)CC(C)C(=O)N2C` (configuration not stated), the kinase still bound, per cent of control is 2.8% on PLK3 (human); 15% on CLK2 (human); 34% on RPS6KA2 KD2 (human); 3.2% at GAK (human); 2% at SLK (human); 9.4% at TTK (human) [7] (compound 10.0 µM). The kinase still bound, per cent of control on CAMKK1 (human) was found to be 33%; on DCLK1 (human), 3.4%; at MYLK (human) it was 0.45%; on DAPK1 (human), 7.2%; at STK33 (human), 7%; at DAPK3 (human) it was 8.2%. The kinase still bound, per cent of control at PTK2 (human) turned out to be 17%; at PLK4 (human), 16%; on DCLK2 (human), 1.8%; on MET (human) it was 20%; at PLK1 (human), 22%; on PRKD1 (human), 34%. In addition, the kinase still bound, per cent of control at TNK1 (human) was 24%; at RPS6KA6 KD2 (human) it was 32%; at MAPK7 (human), 9.6%; at CAMKK2 (human), 7.6%; on ALK (human), 20%; on MINK1 (human), 33%. Moreover, the kinase still bound, per cent of control turned out to be 20% on CAMK2A (human) and 21% on DAPK2 (human). The compound further came in with a Kd on TTK (human) [7] of 3920 nM. The IC50 on TTK (human) [8] is more than 10000 nM.

For the origin of these results see the kinase profiling compilation of Christmann-Franck et al. (2016).
